Target: T1, human mAChR M1 (Homo sapiens, UniProt P11229)
T1 sequence (P11229 1-460): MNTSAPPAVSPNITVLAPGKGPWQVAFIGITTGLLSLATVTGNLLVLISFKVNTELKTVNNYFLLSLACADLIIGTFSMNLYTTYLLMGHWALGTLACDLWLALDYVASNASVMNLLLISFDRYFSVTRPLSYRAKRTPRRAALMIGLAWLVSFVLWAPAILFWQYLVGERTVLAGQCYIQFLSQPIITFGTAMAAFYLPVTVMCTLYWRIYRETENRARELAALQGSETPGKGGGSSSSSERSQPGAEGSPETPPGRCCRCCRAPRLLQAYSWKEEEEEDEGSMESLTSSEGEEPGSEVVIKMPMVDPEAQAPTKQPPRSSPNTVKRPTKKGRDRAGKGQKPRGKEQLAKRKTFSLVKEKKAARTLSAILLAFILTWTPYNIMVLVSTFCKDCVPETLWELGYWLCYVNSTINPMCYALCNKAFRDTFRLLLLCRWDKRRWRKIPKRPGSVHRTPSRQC
Assay: mAChR M1 cell-based functional assay (calcium mobilization, PAM mode)
Settings: CHO-K1 cells stably expressing hM1, calcium flux (Fluo-4); for EC50: concentration-dependent increase in the EC20 acetylcholine response; for Emax: potentiation of EC20 acetylcholine response
Description: Chinese hamster ovary (CHO-K1) cells stably expressing rat (r)M1 were purchased from the American Type Culture Collection and cultured according to their indicated protocol. CHO cells stably expressing human (h)M2, hM3, and hM5 were described previously (Levey, et al., 1991); hM1 and hM4 cDNAs were purchased from Missouri S&T cDNA Resource; rM4 cDNA was provided by T. I. Bonner (National Institutes of Health, Bethesda, MD). rM2 and rM3 were cloned from a rat brain cDNA library and sequence verified. hM1, rM2, rM3, hM4, and rM4 cDNAs were used to stably transfect CHO-K1 cells purchased from the American Type Culture Collection using Lipofectamine2000. To make stable rM2, hM2, rM3, hM4, and rM4 cell lines for use in calcium mobilization assays, these cells also were stably transfected with a chimeric G-protein (Gqi5) (provided by B. R. Conklin, University of California, San Francisco) using Lipofectamine 2000. rM1, hM1, rM3, hM3, rM5, and hM5 cells were grown in Ham's F-12 medium containing 10% heat-inactivated fetal bovine serum (FBS), 20 mM HEPES, and 50 μg/mL G418 sulfate. rM2-Gqi5, hM2-Gqi5, and hM4-Gqi5 cells were grown in the same medium also containing 500 μg/mL Hygromycin B. Stable rM4-Gqi5 cells were grown in DMEM containing 10% heat-inactivated FBS, 20 mM HEPES, 400 μg/mL G418 sulfate, and 500 μg/mL Hygromycin B.
For high throughput measurement of agonist-evoked increases in intracellular calcium, CHO-K1 cells stably expressing muscarinic receptors were plated in growth medium lacking G418 and hygromycin at 15,000 cells/20 μL/well in Greiner 384-well black-walled, tissue culture (TC)-treated, clear-bottom plates (VWR). Cells were incubated overnight at 37° C. and 5% CO2. The next day, cells were washed using an ELX 405 (BioTek) with four washes (80 μL) of assay buffer then aspirated to 20 μL. Next, 20 μL of 16 μM Fluo-4/acetoxymethyl ester (Invitrogen, Carlsbad, CA) prepared as a 2.3 mM stock in DMSO and mixed in a 1:1 ratio with 10% (w/v) Pluronic F-127 and diluted in assay buffer was added to the wells and the cell plates were incubated for 50 min at 37° C. and 5% CO2. Dye was removed by washing with the ELX 405 (four […], washes of assay buffer) then aspirated to 20 μL. Compound master plates were formatted in an 11 point CRC format (1:3 dilutions) in 100% DMSO with a starting concentration of 10 mM using the BRAVO liquid handler (Agilent). Test compound CRCs were then transferred to daughter plates (240 nL) using the Echo acoustic plate reformatter (Labcyte, Sunnyvale, CA) and then diluted into assay buffer (40 μL) to a 2× stock using a Thermo Fisher Combi (Thermo Fisher Scientific, Waltham, MA).
Calcium flux was measured using the Functional Drug Screening System (FDSS) 6000 (Hamamatsu Corporation, Tokyo, Japan) as an increase in the fluorescent static ratio. Compounds were applied to cells (20 μL, 2×) using the automated system of the FDSS 6000 at 4 s into the 300 s protocol and the data were collected at 1 Hz. At 144 s into the 300 s protocol, 10 μL of an EC20 concentration of the muscarinic receptor agonist acetylcholine was added (5×), followed by the addition of 12 μL an EC80 concentration of acetylcholine at the 230 s time point (5×). Agonist activity was analyzed as a concentration-dependent increase in calcium mobilization upon compound addition. Emax values for agonist activity are expressed relative to the maximum for acetylcholine. Positive allosteric modulator activity was analyzed as a concentration-dependent increase in the EC20 acetylcholine response. Antagonist activity was analyzed as a concentration-dependent decrease in the EC80 acetylcholine response. Concentration-response curves were generated using a four-parameter logistical equation in XLfit curve fitting software (IDBS, Bridgewater, NJ) for Excel (Microsoft, Redmond, WA) or Prism (GraphPad Software, Inc., San Diego, CA). […]

Row | EC50 [nM] | Emax [%] | SMILES
1 | 920 | 81 | O=C(N[C@H]1CCOC[C@@H]1O)c1cc(Cc2ccc(-n3cccn3)cc2)cc2c1OCO2 [Compound 1, N-[(3R,4S)-3-hydroxytetrahydropyran-4-yl]-6-[(4-pyrazol-1-ylphenyl)methyl]-1,3-benzodioxole-4-carboxamide]
2 | 790 | 82 | O=C(N[C@H]1CCCC[C@@H]1O)c1cc(Cc2ccc(-n3cccn3)cc2)cc2c1OCO2 [Compound 2, N-[(1S,2S)-2-hydroxycyclohexyl]-6-[(4-pyrazol-1-ylphenyl)methyl]-1,3-benzodioxole-4-carboxamide]
3 | – | 59 | O=C(NC1CC2(COC2)C1)c1cc(Cc2ccc(-n3cccn3)cc2)cc2c1OCO2 [Compound 3, N-(2-oxaspiro[3.3]heptan-6-yl)-6-[(4-pyrazol-1-ylphenyl)methyl]-1,3-benzodioxole-4-carboxamide]
4 | 2480 | 69 | O=C(N[C@H]1CCC[C@@H]1O)c1cc(Cc2ccc(-n3cccn3)cc2)cc2c1OCO2 [Compound 4, N-[(1S,2S)-2-hydroxycyclopentyl]-6-[(4-pyrazol-1-ylphenyl)methyl]-1,3-benzodioxole-4-carboxamide]
5 | 3670 | 55 | O=C(N[C@H]1CC[C@@H]1O)c1cc(Cc2ccc(-n3cccn3)cc2)cc2c1OCO2 [Compound 5, N-[(1S,2S)-2-hydroxycyclobutyl]-6-[(4-pyrazol-1-ylphenyl)methyl]-1,3-benzodioxole-4-carboxamide]
6 | 1040 | 76 | O=C(N[C@H]1CCCCC[C@@H]1O)c1cc(Cc2ccc(-n3cccn3)cc2)cc2c1OCO2 [Compound 6, N-[(1S,2S)-2-hydroxycycloheptyl]-6-[(4-pyrazol-1-ylphenyl)methyl]-1,3-benzodioxole-4-carboxamide]
7 | – | 61 | CC(C)(O)CNC(=O)c1cc(Cc2ccc(-n3cccn3)cc2)cc2c1OCO2 [Compound 7, N-(2-hydroxy-2-methyl-propyl)-6-[(4-pyrazol-1-ylphenyl)methyl]-1,3-benzodioxole-4-carboxamide]
8 | 7330 | 67 | CC1(C)COCCC1NC(=O)c1cc(Cc2ccc(-n3cccn3)cc2)cc2c1OCO2 (stereo not shown) [Compound 8, N-(3,3-dimethyltetrahydropyran-4-yl)-6-[(4-pyrazol-1-ylphenyl)methyl]-1,3-benzodioxole-4-carboxamide]
9 | 1420 | 75 | Cn1ccc(-c2ccc(Cc3cc4c(c(C(=O)N[C@H]5CCOC[C@@H]5O)c3)OCO4)cn2)n1 [Compound 9, N-[(3R,4S)-3-hydroxytetrahydropyran-4-yl]-6-[[6-(1-methylpyrazol-3-yl)-3-pyridyl]methyl]-1,3-benzodioxole-4-carboxamide]
10 | 1190 | 74 | Cn1ccc(-c2ccc(Cc3cc4c(c(C(=O)N[C@H]5CCCCC[C@@H]5O)c3)OCO4)cn2)n1 [Compound 10, N-[(1S,2S)-2-hydroxycycloheptyl]-6-[[6-(1-methylpyrazol-3-yl)-3-pyridyl]methyl]-1,3-benzodioxole-4-carboxamide]
11 | 810 | 76 | Cn1ccc(-c2ccc(Cc3cc4c(c(C(=O)N[C@H]5CCCC[C@@H]5O)c3)OCO4)cn2)n1 [Compound 11, N-[(1S,2S)-2-hydroxycyclohexyl]-6-[[6-(1-methylpyrazol-3-yl)-3-pyridyl]methyl]-1,3-benzodioxole-4-carboxamide]
12 | 6440 | 74 | Cn1ccc(-c2ccc(Cc3cc4c(c(C(=O)N[C@H]5CCC[C@@H]5O)c3)OCO4)cn2)n1 [Compound 12, N-[(1S,2S)-2-hydroxycyclopentyl]-6-[[6-(1-methylpyrazol-3-yl)-3-pyridyl]methyl]-1,3-benzodioxole-4-carboxamide]
13 | – | 65 | Cn1ccc(-c2ccc(Cc3cc4c(c(C(=O)N[C@H]5CC[C@@H]5O)c3)OCO4)cn2)n1 [Compound 13, N-[(1S,2S)-2-hydroxycyclobutyl]-6-[[6-(1-methylpyrazol-3-yl)-3-pyridyl]methyl]-1,3-benzodioxole-4-carboxamide]
14 | – | 57 | Cn1ccc(-c2ccc(Cc3cc4c(c(C(=O)NC5CC6(COC6)C5)c3)OCO4)cn2)n1 [Compound 14, 6-[[6-(1-methylpyrazol-3-yl)-3-pyridyl]methyl]-N-(2-oxaspiro[3.3]heptan-6-yl)-1,3-benzodioxole-4-carboxamide]
15 | – | 49 | Cn1ccc(-c2ccc(Cc3cc4c(c(C(=O)NC5CCOCC5)c3)OCO4)cn2)n1 [Compound 15, 6-[[6-(1-methylpyrazol-3-yl)-3-pyridyl]methyl]-N-tetrahydropyran-4-yl-1,3-benzodioxole-4-carboxamide]
16 | 1810 | 78 | Cc1nc(-c2ccc(Cc3cc4c(c(C(=O)N[C@H]5CCOC[C@@H]5O)c3)OCO4)cc2)co1 [Compound 16, N-[(3R,4S)-3-hydroxytetrahydropyran-4-yl]-6-[[4-(2-methyloxazol-4-yl)phenyl]methyl]-1,3-benzodioxole-4-carboxamide]
17 | 1150 | 66 | Cc1nc(-c2ccc(Cc3cc4c(c(C(=O)N[C@H]5CCCC[C@@H]5O)c3)OCO4)cc2)co1 [Compound 17, N-[(1S,2S)-2-hydroxycyclohexyl]-6-[[4-(2-methyloxazol-4-yl)phenyl]methyl]-1,3-benzodioxole-4-carboxamide]
18 | 260 | 75 | Cc1c(Cc2ccc(-n3cccn3)cc2)cc(C(=O)N[C@H]2CCOC[C@@H]2O)c2c1OCO2 [Compound 18, N-[(3R,4S)-3-hydroxytetrahydropyran-4-yl]-7-methyl-6-[(4-pyrazol-1-ylphenyl)methyl]-1,3-benzodioxole-4-carboxamide]
19 | 420 | 78 | Cc1c(Cc2ccc(-n3cccn3)cc2)cc(C(=O)N[C@H]2CCCC[C@@H]2O)c2c1OCO2 [Compound 19, N-[(1S,2S)-2-hydroxycyclohexyl]-7-methyl-6-[(4-pyrazol-1-ylphenyl)methyl]-1,3-benzodioxole-4-carboxamide]
20 | 330 | 88 | Cc1c(Cc2ccc(-c3ccn(C)n3)cc2)cc(C(=O)N[C@H]2CCOC[C@@H]2O)c2c1OCO2 [Compound 20, N-[(3R,4S)-3-hydroxytetrahydropyran-4-yl]-7-methyl-6-[[4-(1-methylpyrazol-3-yl)phenyl]methyl]-1,3-benzodioxole-4-carboxamide]
21 | 410 | 80 | Cc1c(Cc2ccc(-c3ccn(C)n3)cc2)cc(C(=O)N[C@H]2CCCC[C@@H]2O)c2c1OCO2 [Compound 21, N-[(1S,2S)-2-hydroxycyclohexyl]-7-methyl-6-[[4-(1-methylpyrazol-3-yl)phenyl]methyl]-1,3-benzodioxole-4-carboxamide]

— patent US12065433B2, “Positive allosteric modulators of the muscarinic acetylcholine receptor M1” (Vanderbilt University, priority 2018, dated 2024)
